Numbering of substitutions follows the chain as printed.
How the values were obtained:
[1] = Human liver microsome stability; type: in vitro ADME; details: Table 6, human liver microsomes, 1 μM
Description: (§1) Preincubation mixture 2.5 μL Test Cpd. +75 μL Liver microsomes (human or mouse source) @ 3.33 mg/mL+85 µL of 100 mM potassium phosphate buffer (preincubate for 10 min @ 37° C.). Incubation mixture 62 μL of cofactor (2.85 mM)+Remaining incubation mixture (Incubated for 60 min @ 37° C.). Sample preparation 25 μL incubation mixture+200 μL of acetonitrile containing internal standard+Vortex 5 min @ 1200 rpm+Centrifuge 10 min @ 4000 rpm. Supernatant diluted 2-fold with water and injected on LC-MS/MS.

[2] = target: T1, human AR (Homo sapiens, UniProt P10275); assay: Indigo Biosciences AR reporter cell assay (AR inhibition, antagonist mode); type: cell-based; details: Table 2; luciferase reporter cells, 24 hr, EC80 of agonist 5α-dihydro-11-keto testosterone; read-out: AR Inhibition Indigo Cell Based: Avg IC50
T1 construct: Reporter Cells used in these assays expressed a native receptor (AR)
T1 sequence (P10275 1-920): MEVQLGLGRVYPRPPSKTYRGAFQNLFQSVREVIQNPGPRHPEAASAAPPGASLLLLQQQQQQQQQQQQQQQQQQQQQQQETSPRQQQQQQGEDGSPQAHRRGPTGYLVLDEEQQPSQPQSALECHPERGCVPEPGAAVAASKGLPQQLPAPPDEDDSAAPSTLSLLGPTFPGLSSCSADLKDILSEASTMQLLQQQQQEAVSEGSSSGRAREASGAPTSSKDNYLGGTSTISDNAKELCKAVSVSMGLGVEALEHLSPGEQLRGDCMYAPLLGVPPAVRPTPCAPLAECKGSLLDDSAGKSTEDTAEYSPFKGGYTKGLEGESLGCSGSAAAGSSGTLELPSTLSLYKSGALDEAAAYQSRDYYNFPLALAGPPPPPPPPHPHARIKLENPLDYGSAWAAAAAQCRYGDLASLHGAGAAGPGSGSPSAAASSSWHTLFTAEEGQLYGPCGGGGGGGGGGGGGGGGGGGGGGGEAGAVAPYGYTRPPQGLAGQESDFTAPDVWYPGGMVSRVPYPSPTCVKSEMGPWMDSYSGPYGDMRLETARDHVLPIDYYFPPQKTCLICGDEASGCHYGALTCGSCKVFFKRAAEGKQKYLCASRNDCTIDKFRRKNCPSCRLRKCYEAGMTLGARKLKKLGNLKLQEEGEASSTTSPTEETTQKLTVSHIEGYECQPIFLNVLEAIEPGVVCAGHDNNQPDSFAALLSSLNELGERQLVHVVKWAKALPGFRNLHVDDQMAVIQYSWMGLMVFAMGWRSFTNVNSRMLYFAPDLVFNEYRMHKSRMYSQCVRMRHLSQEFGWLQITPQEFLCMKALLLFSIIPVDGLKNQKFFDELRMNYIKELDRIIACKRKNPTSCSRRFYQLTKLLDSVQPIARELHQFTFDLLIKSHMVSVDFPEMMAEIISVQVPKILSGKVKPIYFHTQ
Description: The aim of this study was to evaluate compounds 1-12 and the comparative compounds 1-2 for inhibition activities against human AR. Reporter Cells used in these assays expressed a native receptor (AR). The reporter gene, firefly luciferase, is functionally linked to an upstream receptor-specific genetic response element (GRE). Reporter cells were treated with eight concentrations, starting at 50 μM and following with 3.17-fold dilutions. Single treatment concentration was performed (n=1). Assay performance was validated using the reference antagonist hydroxy flutamide. • Step 1: A suspension of reporter cells was prepared in Cell Recovery Medium (CRM). Reporter cells were first supplemented with 2×-EC80 concentration of the reference agonist, 5α-dihydro-11-keto testosterone, then 100 μl of the Reporter Cell suspension was dispensed into wells of a white 96-well assay plate. • Step 2: Test compound master stocks were diluted in DMSO to generate solutions at ‘500×-concentration’ relative to the final treatment concentration and diluted directly into INDIGO's Compound Screening Medium (CSM; containing charcoal-stripped FBS) to generate ‘2×-concentration’ treatment media. This was diluted into the wells to the final concentration. Assay plates were incubated at 37° C., 5% CO2 and ~70% humidity for 24 hr. • Step 3: Following the incubation period, wells were rinsed once with Live Cell Multiplex (LCM) Buffer, then LCM substrate was added. Following incubation at room temperature for 15 min, LCM substrate was discarded and 100 μL/well of luciferase detection reagent was added. Subsequently, fluorescence was measured to determine the relative number of live cells per assay well. RLU values were quantified after a 10 min incubation period at room temperature to determine nuclear receptor activities.

[3] = Mouse liver microsome stability; type: in vitro ADME; details: Table 6, mouse liver microsomes, 1 μM
Description: as §1

[4] = target: T2, Human androgen receptors (Homo sapiens, UniProt P10275, T878A); assay: Biochemical AR LBD antagonism (Eurofins AR radioligand binding assay); details: Table 4; read-out: Biochemical AR LBD Antagonism: Average IC50
T2 construct: Human androgen receptors obtained from human LNCaP cells were used; host or cells: human LNCaP cells
T2 sequence (P10275 1-920 T878A): T1 sequence (P10275 1-920) with T878A
Description: Human androgen receptors obtained from human LNCaP cells were used in modified HEPES buffer pH 7.4. A 70 μg‡ aliquot was incubated with 0.5 nM [3H] Methyltrienolone for 20 h at 4° C. Non-specific binding was estimated in the presence of 1 μM testosterone. Receptors were filtered and washed, the filters were then counted to determine [3H] Methyltrienolone specifically bound. Compounds were screened at 10 μM.
Furthermore, as noted earlier, most clinically relevant AR inhibitors target the ligand binding domain (LBD) of the androgen receptor, and these inhibitors can lose efficacy due to point mutations in the LBD. Given that the AR protein contains multiple sub-domains, targeting other domains is an attractive approach for new inhibitors. […] Therefore, the compounds as described herein may be interacting with other subdomains in the AR protein, namely the N-terminal domain.

| Structure (SMILES) | Human LM: Rem @ 60 min [1] | IC50 [2] [nM] | Mouse LM: Rem @ 60 min [3] | IC50 [4] [nM] |
| --- | --- | --- | --- | --- |
| Cc1nnc2ccc(N[C@H](C)c3ccc(F)cc3)nn12 [Compound 10, (R)—N-(1-(4-fluorophenyl)ethyl)-3-methyl-[1,2,4]triazolo[4,3-b]pyridazin-6-amine] | +++ (>60.1: “+++”) | 51 to 500 | +++ (>60.1: “+++”) | > 501 |
| C[C@@H](Nc1ccc2nnc(C(F)F)n2n1)c1ccc(F)cc1 [Compound 12] | +++ (>60.1: “+++”) | 51 to 500 | +++ (>60.1: “+++”) | > 501 |

Source: patent US20260217716A1, “ANDROGEN RECEPTOR MODULATORS AND METHODS FOR THEIR USE” (Capulus Therapeutics, LLC, priority 2022, published 2026)
